# Data published in ChEMBL document CHEMBL5096202, “Carbon-silicon switch led to the discovery of novel synthetic cannabinoids with therapeutic effects in a mouse model of multiple sclerosis” (Eur J Med Chem, 2021).
# Molecular target: T1, Cannabinoid receptor 1 (Homo sapiens, UniProt P21554)
# Experiment: Displacement of [3H]-CP55940 from recombinant human CB1 receptor expressed in CHO cells assessed as inhibition constant incubated for 120 mins by radioligand binding assay
# Type: cell-based
# Details: not given
# T1 sequence (P21554 whole entry): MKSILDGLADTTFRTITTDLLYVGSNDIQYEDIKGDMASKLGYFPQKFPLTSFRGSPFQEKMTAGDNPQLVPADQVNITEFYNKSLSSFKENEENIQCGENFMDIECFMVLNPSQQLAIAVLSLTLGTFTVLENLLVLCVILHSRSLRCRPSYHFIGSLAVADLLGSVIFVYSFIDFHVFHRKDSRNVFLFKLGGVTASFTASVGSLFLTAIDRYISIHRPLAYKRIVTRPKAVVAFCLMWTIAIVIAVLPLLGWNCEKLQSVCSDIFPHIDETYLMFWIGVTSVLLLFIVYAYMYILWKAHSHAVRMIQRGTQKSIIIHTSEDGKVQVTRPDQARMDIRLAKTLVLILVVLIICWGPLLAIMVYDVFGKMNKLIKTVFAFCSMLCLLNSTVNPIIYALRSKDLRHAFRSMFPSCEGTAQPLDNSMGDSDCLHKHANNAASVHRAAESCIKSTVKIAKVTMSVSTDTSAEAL
row,SMILES,Ki
1,CCCCCC[Si](C)(C)c1cc(O)c([C@H]2C=C(CO)[C@H]3C[C@@H]2C3(C)C)c(O)c1,14.3 nM
2,CCCC[Si](C)(C)c1cc(O)c2c(c1)OC(C)(C)c1ccc(CO)cc1-2,2.79 nM
3,CC[Si](C)(C)c1cc(O)c2c(c1)OC(C)(C)[C@@H]1CCC(C)=C[C@@H]21,19.3 nM
4,CCCCCC[Si](C)(C)c1cc(O)c2c(c1)OC(C)(C)c1ccc(C)cc1-2,0.79 nM
5,CCCC[Si](C)(C)c1cc(O)c(C2CCCCC2)c(O)c1,241 nM
6,CCCC[Si](C)(C)c1cc(O)c(C2CCCC2)c(OC)c1,600 nM
7,CCCC[Si](C)(C)c1cc(O)c2c(c1)OC(C)(C)[C@@H]1CC=C(CO)C[C@@H]21,2.28 nM

# Molecular target: T2, Cannabinoid receptor 2 (Homo sapiens, UniProt P34972)
# Experiment: Agonist activity at recombinant human CB2 receptor expressed in CHO cells assessed as inhibition of forskolin-induced cAMP accumulation by measuring maximum efficacy preincubated for 15 mins followed by forskolin stimulation and measured after 15 mins by HTRF assay relative to control
# Type: functional, cell-based
# Details: filed as agonist, time 30.0 min
# T2 sequence (P34972 whole entry): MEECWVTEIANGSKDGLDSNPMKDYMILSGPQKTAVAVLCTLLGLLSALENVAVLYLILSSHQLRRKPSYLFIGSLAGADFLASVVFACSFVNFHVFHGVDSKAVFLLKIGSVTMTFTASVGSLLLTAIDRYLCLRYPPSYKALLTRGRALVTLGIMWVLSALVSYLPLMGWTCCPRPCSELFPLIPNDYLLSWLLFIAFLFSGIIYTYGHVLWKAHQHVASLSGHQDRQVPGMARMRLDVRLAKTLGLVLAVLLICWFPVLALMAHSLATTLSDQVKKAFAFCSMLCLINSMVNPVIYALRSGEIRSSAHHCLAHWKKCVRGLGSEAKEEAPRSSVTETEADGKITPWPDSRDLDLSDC
row,SMILES,Emax
1,CCCCCC[Si](C)(C)c1cc(O)c([C@H]2C=C(CO)[C@H]3C[C@@H]2C3(C)C)c(O)c1,94.1%
2,CCCC[Si](C)(C)c1cc(O)c2c(c1)OC(C)(C)c1ccc(CO)cc1-2,92.8%
3,CC[Si](C)(C)c1cc(O)c2c(c1)OC(C)(C)[C@@H]1CCC(C)=C[C@@H]21,84.8%
4,CCCCCC[Si](C)(C)c1cc(O)c2c(c1)OC(C)(C)c1ccc(C)cc1-2,862%
5,CCCC[Si](C)(C)c1cc(O)c(C2CCCCC2)c(O)c1,95.2%
6,CCCC[Si](C)(C)c1cc(O)c(C2CCCC2)c(OC)c1,85.4%
7,CCCC[Si](C)(C)c1cc(O)c2c(c1)OC(C)(C)[C@@H]1CC=C(CO)C[C@@H]21,91.2%

# Molecular target: T2, Cannabinoid receptor 2
# Experiment: Displacement of [3H]-CP55940 from recombinant human CB2 receptor expressed in CHO cells assessed as inhibition constant incubated for 120 mins by radioligand binding assay
# Type: cell-based
# Details: not given
row,SMILES,Ki
1,CCCCCC[Si](C)(C)c1cc(O)c([C@H]2C=C(CO)[C@H]3C[C@@H]2C3(C)C)c(O)c1,11.4 nM
2,CCCC[Si](C)(C)c1cc(O)c2c(c1)OC(C)(C)c1ccc(CO)cc1-2,3.49 nM
3,CC[Si](C)(C)c1cc(O)c2c(c1)OC(C)(C)[C@@H]1CCC(C)=C[C@@H]21,1070 nM
4,CCCCCC[Si](C)(C)c1cc(O)c2c(c1)OC(C)(C)c1ccc(C)cc1-2,2.21 nM
5,CCCC[Si](C)(C)c1cc(O)c(C2CCCCC2)c(O)c1,31.4 nM
6,CCCC[Si](C)(C)c1cc(O)c(C2CCCC2)c(OC)c1,903 nM
7,CCCC[Si](C)(C)c1cc(O)c2c(c1)OC(C)(C)[C@@H]1CC=C(CO)C[C@@H]21,0.65 nM

# Molecular target: T1, Cannabinoid receptor 1
# Experiment: Agonist activity at recombinant human CB1 receptor expressed in CHO cells assessed as inhibition of forskolin-induced cAMP accumulation by measuring maximum efficacy preincubated for 15 mins followed by forskolin stimulation and measured after 15 mins by HTRF assay relative to control
# Type: functional, cell-based
# Details: filed as agonist, time 30.0 min
row,SMILES,Emax
1,CCCCCC[Si](C)(C)c1cc(O)c([C@H]2C=C(CO)[C@H]3C[C@@H]2C3(C)C)c(O)c1,102%
2,CCCC[Si](C)(C)c1cc(O)c2c(c1)OC(C)(C)c1ccc(CO)cc1-2,94.8%
3,CCCCCC[Si](C)(C)c1cc(O)c2c(c1)OC(C)(C)c1ccc(C)cc1-2,98.4%
4,CCCC[Si](C)(C)c1cc(O)c2c(c1)OC(C)(C)[C@@H]1CC=C(CO)C[C@@H]21,102%

# Molecular target: T1, Cannabinoid receptor 1
# Experiment: Agonist activity at recombinant human CB1 receptor expressed in CHO cells assessed as inhibition of forskolin-induced cAMP accumulation preincubated for 15 mins followed by forskolin stimulation and measured after 15 mins by HTRF assay
# Type: functional, cell-based
# Details: not given
row,SMILES,EC50
1,CCCCCC[Si](C)(C)c1cc(O)c([C@H]2C=C(CO)[C@H]3C[C@@H]2C3(C)C)c(O)c1,248 nM
2,CCCC[Si](C)(C)c1cc(O)c2c(c1)OC(C)(C)c1ccc(CO)cc1-2,214 nM
3,CCCCCC[Si](C)(C)c1cc(O)c2c(c1)OC(C)(C)c1ccc(C)cc1-2,12.3 nM
4,CCCC[Si](C)(C)c1cc(O)c2c(c1)OC(C)(C)[C@@H]1CC=C(CO)C[C@@H]21,35.2 nM

# Molecular target: T2, Cannabinoid receptor 2
# Experiment: Agonist activity at recombinant human CB2 receptor expressed in CHO cells assessed as inhibition of forskolin-induced cAMP accumulation preincubated for 15 mins followed by forskolin stimulation and measured after 15 mins by HTRF assay
# Type: functional, cell-based
# Details: not given
row,SMILES,EC50
1,CCCCCC[Si](C)(C)c1cc(O)c([C@H]2C=C(CO)[C@H]3C[C@@H]2C3(C)C)c(O)c1,63.5 nM
2,CCCC[Si](C)(C)c1cc(O)c2c(c1)OC(C)(C)c1ccc(CO)cc1-2,267 nM
3,CC[Si](C)(C)c1cc(O)c2c(c1)OC(C)(C)[C@@H]1CCC(C)=C[C@@H]21,352 nM
4,CCCCCC[Si](C)(C)c1cc(O)c2c(c1)OC(C)(C)c1ccc(C)cc1-2,32.6 nM
5,CCCC[Si](C)(C)c1cc(O)c(C2CCCCC2)c(O)c1,25.3 nM
6,CCCC[Si](C)(C)c1cc(O)c(C2CCCC2)c(OC)c1,1000 nM
7,CCCC[Si](C)(C)c1cc(O)c2c(c1)OC(C)(C)[C@@H]1CC=C(CO)C[C@@H]21,8340 nM
